Laboratory results taken from patent US20250215013A1, “SUBSTITUTED TRICYCLIC COMPOUNDS AS PARP INHIBITORS AND THE USE THEREOF” (IMPACT THERAPEUTICS (SHANGHAI), INC., priority 2022, published 2025).

test system: MDA-MB-436 cells; experiment: Growth inhibition assay against BRCA mutant human breast cancer MDA-MB-436 cell line (CCK-8); format: cell-based; settings: Homo sapiens, MDA-MB-436, […], proliferation of MDA-MB-436 cells, 7 days

Compared with `CNC(=O)c1ccc(N2CCN(Cc3ccc4c(c3)[nH]c(=O)c3ncsc34)CC2)c(C)n1` [Example 4, 7-((4-(2-methyl-6-(methylcarbamoyl)pyridin-3-yl)piperazin-1-yl)methyl)thiazolo[4,5-c]quinolin-4(5H)-one], `CNC(=O)c1ccc(N2CCN(Cc3ccc4c(c3)[nH]c(=O)c3n[nH]cc34)CC2)c(C)n1` [Example 70, 7-((4-(2-methyl-6-(methylcarbamoyl)pyridin-3-yl)piperazin-1-yl)methyl)-2,5-dihydro-4H-pyrazolo[3,4-c]quinolin-4-one] is 3.8-fold higher in IC50: 7.69 nM for the first, 28.9 nM for the second.

First: CNC(=O)c1ccc(N2CCN(Cc3ccc4c(c3)[nH]c(=O)c3cn[nH]c34)CC2)c(C)n1 [Example 7, 7-((4-(2-methyl-6-(methylcarbamoyl)pyridin-3-yl)piperazin-1-yl)methyl)-1,5-dihydro-4H-pyrazolo[4,3-c]quinolin-4-one]
Second: CNC(=O)c1ccc(N2CCN(Cc3ccc4c(c3)[nH]c(=O)c3cc[nH]c34)CC2)c(C)n1 [Example 23, 7-((4-(2-methyl-6-(methylcarbamoyl)pyridin-3-yl)piperazin-1-yl)methyl)-1,5-dihydro-4H-pyrrolo[3,2-c]quinolin-4-one]
The IC50 of the first is 3-fold higher: 5.22 nM for the first, 1.74 nM for the second. The second is the more potent here.

Going from `CNC(=O)c1ccc(N2CCN(Cc3ccc4c(c3)[nH]c(=O)c3c4ccn3C)CC2)c(C)n1` [Example 11, 7-((4-(2-methyl-6-(methylcarbamoyl)pyridin-3-yl)piperazin-1-yl)methyl)-3-methyl-3,5-dihydro-4H-pyrrolo[2,3-c]quinolin-4-one] to `CNC(=O)c1ccc(N2CCN(Cc3ccc4c(c3)[nH]c(=O)c3ccn(C)c34)CC2)c(F)n1` [Example 24, 7-((4-(2-fluoro-6-(methylcarbamoyl)pyridin-3-yl)piperazin-1-yl)methyl)-1-methyl-1,5-dihydro-4H-pyrrolo[3,2-c]quinolin-4-one], the IC50 falls from 11.3 nM to 1.11 nM (10-fold). The second is the more potent here.

`CNC(=O)c1ccc(N2CCN(Cc3ccc4c([nH]c(=O)n5ccnc45)c3F)CC2)c(C)n1` [Example 50, 8-((4-(2-methyl-6-(methylcarbamoyl)pyridin-3-yl)piperazin-1-yl)methyl)-7-fluoroimidazo[1,2-c]quinazolin-5(6H)-one] and `CNC(=O)c1ccc(N2CCN(Cc3ccc4c([nH]c(=O)c5cn(C)nc54)c3F)CC2)c(C)n1` [Example 88, 7-((4-(2-methyl-6-(methylcarbamoyl)pyridin-3-yl)piperazin-1-yl)methyl)-6-fluoro-2-methyl-2,5-dihydro-4H-pyrazolo[4,3-c]quinolin-4-one] are within 1.5-fold of each other in IC50: 23.6 nM for the first, 21.7 nM for the second.

First: CNC(=O)c1ccc(N2CCN(Cc3ccc4c([nH]c(=O)c5c(Cl)cnn54)c3F)CC2)c(C)n1 [Example 59, 7-((4-(2-methyl-6-(methylcarbamoyl)pyridin-3-yl)piperazin-1-yl)methyl)-6-fluoro-3-chloro-pyrazolo[1,5-a]quinoxalin-4(5H)-one]
Second: CNC(=O)c1ccc(N2CCN(Cc3ccc4c([nH]c(=O)c5ncn(C)c54)c3F)CC2)c(F)n1 [Example 100, 7-((4-(2-fluoro-6-(methylcarbamoyl)pyridin-3-yl)piperazin-1-yl)methyl)-6-fluoro-1-methyl-1,5-dihydro-4H-imidazo[4,5-c]quinolin-4-one]
The IC50 of the first is lower: 2.13 nM for the first, over 100 nM for the second. The first is the more potent here.

First: CNC(=O)c1ccc(N2CCN(Cc3ccc4c([nH]c(=O)n5nccc45)c3F)CC2)c(F)n1 [Example 73, 8-((4-(2-fluoro-6-(methylcarbamoyl)pyridin-3-yl)piperazin-1-yl)methyl)-7-fluoropyrazolo[1,5-c]quinazolin-5(6H)-one]
Second: CNC(=O)c1ccc(N2CCN(Cc3ccc4c([nH]c(=O)c5cn(C)nc54)c3F)CC2)c(F)n1 [Example 90, 7-((4-(2-fluoro-6-(methylcarbamoyl)pyridin-3-yl)piperazin-1-yl)methyl)-6-fluoro-2-methyl-2,5-dihydro-4H-pyrazolo[4,3-c]quinolin-4-one]
The IC50 of the first is 2.3-fold lower: 12.3 nM for the first, 28.7 nM for the second. The first is the more potent here.

`CNC(=O)c1ccc(N2CCN(Cc3cc4[nH]c(=O)c5ocnc5c4cc3F)CC2)c(F)n1` [Example 94, 7-((4-(2-fluoro-6-(methylcarbamoyl)pyridin-3-yl)piperazin-1-yl)methyl)-8-fluorooxazolo[5,4-c]quinolin-4(5H)-one] and `CNC(=O)c1ccc(N2CCN(Cc3ccc4c([nH]c(=O)c5ocnc54)c3F)CC2)c(F)n1` [Example 95, 7-((4-(2-fluoro-6-(methylcarbamoyl)pyridin-3-yl)piperazin-1-yl)methyl)-6-fluorooxazolo[5,4-c]quinolin-4(5H)-one] cannot be ordered by IC50: over 100 nM for the first, over 100 nM for the second.

Compared with `CNC(=O)c1ccc(N2CCN(Cc3ccc4c([nH]c(=O)c5c(C)noc54)c3F)CC2)c(F)n1` [Example 96, 7-((4-(2-fluoro-6-(methylcarbamoyl)pyridin-3-yl)piperazin-1-yl)methyl)-3-methyl-6-fluoroisoxazolo[4,5-c]quinolin-4(5H)-one], `CNC(=O)c1ccc(N2CCN(Cc3cc4[nH]c(=O)c5c(C)noc5c4cc3F)CC2)c(F)n1` [Example 97, 7-((4-(2-fluoro-6-(methylcarbamoyl)pyridin-3-yl)piperazin-1-yl)methyl)-3-methyl-8-fluoroisoxazolo[4,5-c]quinolin-4(5H)-one] is 3.7-fold lower in IC50: 36.7 nM for the first, 9.79 nM for the second.

First: CNC(=O)c1ccc(N2CCN(Cc3ccc4c([nH]c(=O)c5occc54)c3F)CC2)c(C(F)F)n1 [Example 101, 7-((4-(2-(difluoromethyl)-6-(methylcarbamoyl)pyridin-3-yl)piperazin-1-yl)methyl)-6-fluorofuro[2,3-c]quinolin-4(5H)-one]
Second: CNC(=O)c1ccc(N2CCN(Cc3ccc4c([nH]c(=O)c5occc54)c3Cl)CC2)c(F)n1 [Example 105, 7-((4-(2-fluoro-6-(methylcarbamoyl)pyridin-3-yl)piperazin-1-yl)methyl)-6-chlorofuro[2,3-c]quinolin-4(5H)-one]
The IC50 of the first is lower: 23 nM for the first, over 100 nM for the second. The first is the more potent here.

`NC(=O)c1ccc(N2CCN(Cc3ccc4c([nH]c(=O)c5occc54)c3F)CC2)c(F)n1` [Example 106, 7-((4-(2-fluoro-6-carbamoylpyridin-3-yl)piperazin-1-yl)methyl)-6-fluorofuro[2,3-c]quinolin-4(5H)-one] and `O=c1[nH]c2c(F)c(CN3CCN(c4ccc(-c5nnc[nH]5)nc4F)CC3)ccc2c2ccoc12` [Example 110, 7-((4-(2-fluoro-6-(4H-1,2,4-triazol-3-yl)pyridin-3-yl)piperazin-1-yl)methyl)-6-fluorofuro[2,3-c]quinolin-4(5H)-one] are within 1.5-fold of each other in IC50: 17.5 nM for the first, 12.9 nM for the second.

Going from `CNC(=O)c1ccc(N2CCN(Cc3ccc4c(c3)[nH]c(=O)c3occc34)CC2)cn1` [Example 113, 7-((4-(6-(methylcarbamoyl)pyridin-3-yl)piperazin-1-yl)methyl)furo[2,3-c]quinolin-4(5H)-one] to `CNC(=O)c1ccc(N2CCN(Cc3ccc4c(c3)[nH]c(=O)c3ccoc34)CC2)c(F)n1` [Example 114, 7-((4-(2-fluoro-6-(methylcarbamoyl)pyridin-3-yl)piperazin-1-yl)methyl)furo[3,2-c]quinolin-4(5H)-one], the IC50 falls from 2.19 nM to 1.32 nM (1.7-fold). The second is the more potent here.

In the case of `CNC(=O)c1ccc(N2CCN(Cc3ccc4c([nH]c(=O)c5oc(C)cc54)c3F)CC2)c(F)n1` [Example 116, 7-((4-(2-fluoro-6-(methylcarbamoyl)pyridin-3-yl)piperazin-1-yl)methyl)-6-fluoro-2-methylfuro[2,3-c]quinolin-4(5H)-one], the IC50 is reported as 7.5 nM.
